Measured values taken from ChEMBL document CHEMBL1201862, “PubChem BioAssay data set” (2004).
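48-hour exposure; five concentrations; linearly interpolated endpoints. The concentration for 50% growth inhibition is given as GI50.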 Active and inactive are the calls of the source. Rule as the data show it: active = GI50 up to about 1.1 µM and inactive = higher.

Key:
Assay in all cases: NCI anticancer screen, dose series, 48 h
[1] = tested on: U-251
[2] = tested on: OVCAR-3
[3] = tested on: OVCAR-4
[4] = tested on: T47D
[5] = tested on: SF-539
[6] = tested on: A498
[7] = tested on: SK-MEL-2
[8] = tested on: BT-549
[9] = tested on: Hs-578T
[10] = tested on: MDA-MB-435
[11] = tested on: OVCAR-5
[12] = tested on: NCI-H460
[13] = tested on: DU-145
[14] = tested on: SNB-19
[15] = tested on: HOP-92
[16] = tested on: MDA-MB-231
[17] = tested on: SK-MEL-28
[18] = tested on: SNB-75
[19] = tested on: SK-OV-3
[20] = tested on: RPMI-8226
[21] = tested on: SF-268
[22] = tested on: NCI-H522
[23] = tested on: TK-10
[24] = tested on: CAKI-1
[25] = tested on: RXF 393
[26] = tested on: SN12C
[27] = tested on: SK-MEL-5
[28] = tested on: PC-3
[29] = tested on: 786-0
[30] = tested on: A549
[31] = tested on: NCI-H23
[32] = tested on: UACC-257
[33] = tested on: HCC 2998
[34] = tested on: UACC-62
[35] = tested on: OVCAR-8
[36] = tested on: LOX IMVI
[37] = tested on: Malme-3M
[38] = tested on: UO-31
[39] = tested on: M14
[40] = tested on: HT-29
[41] = tested on: NCI/ADR-RES
[42] = tested on: NCI-H226
[43] = tested on: KM12
[44] = tested on: ACHN
[45] = tested on: HCT-116
[46] = tested on: CCRF-CEM
[47] = tested on: HCT-15
[48] = tested on: HOP-62
[49] = tested on: SW-620
[50] = tested on: COLO 205
[51] = tested on: EKVX
[52] = tested on: K562
[53] = tested on: IGROV-1
[54] = tested on: MOLT-4

| Structure (SMILES) | GI50 [2] | GI50 [4] | GI50 [5] | GI50 [8] | GI50 [9] | GI50 [11] | GI50 [12] | GI50 [13] | GI50 [16] | GI50 [17] | GI50 [18] | GI50 [21] | GI50 [22] | GI50 [24] | GI50 [25] | GI50 [27] | GI50 [29] | GI50 [30] | GI50 [31] | GI50 [33] | other results |
| --- | --- | --- | --- | --- | --- | --- | --- | --- | --- | --- | --- | --- | --- | --- | --- | --- | --- | --- | --- | --- | --- |
| Cc1cc(C)c2c(c1)CC1(Cc3ccc(C)c(C)c3C1=O)C2=O (configuration not stated) | > 100 µM (inactive) | > 100 µM (inactive) | > 100 µM (inactive) | > 100 µM (inactive) | 11.4 µM (inactive) | > 100 µM (inactive) | > 100 µM (inactive) | > 100 µM (inactive) | 6.24 µM (inactive) | > 100 µM (inactive) | > 100 µM (inactive) | > 100 µM (inactive) | > 100 µM (inactive) | > 100 µM (inactive) | 15.8 µM (inactive) | > 100 µM (inactive) | > 100 µM (inactive) | > 100 µM (inactive) | > 100 µM (inactive) | > 100 µM (inactive) | GI50 [1]: 45.2 µM (inactive); GI50 [3]: 45.9 µM (inactive); GI50 [6]: > 100 µM (inactive); GI50 [7]: > 100 µM (inactive); GI50 [10]: 2.24 µM (inactive); GI50 [14]: > 100 µM (inactive); GI50 [15]: > 100 µM (inactive); GI50 [19]: > 100 µM (inactive); GI50 [20]: > 100 µM (inactive); GI50 [23]: 49.8 µM (inactive); GI50 [26]: > 100 µM (inactive); GI50 [28]: 56.2 µM (inactive); GI50 [32]: > 100 µM (inactive); GI50 [34]: > 100 µM (inactive); GI50 [35]: > 100 µM (inactive); GI50 [36]: > 100 µM (inactive); GI50 [37]: 3.56 µM (inactive); GI50 [38]: > 100 µM (inactive); GI50 [39]: > 100 µM (inactive) |
| CC(C)(C)c1ccc(O)c(C(O)c2ccncc2)c1 (configuration not stated) | > 100 µM (inactive) | 16.9 µM (inactive) | > 100 µM (inactive) | > 100 µM (inactive) | 37.7 µM (inactive) | 70.8 µM (inactive) | > 100 µM (inactive) | > 100 µM (inactive) | 62.8 µM (inactive) | > 100 µM (inactive) | 68.7 µM (inactive) | > 100 µM (inactive) | > 100 µM (inactive) | > 100 µM (inactive) | 45.4 µM (inactive) | 24.1 µM (inactive) | > 100 µM (inactive) | 83.2 µM (inactive) | 70.8 µM (inactive) | 39.7 µM (inactive) | GI50 [40]: > 100 µM (inactive); GI50 [41]: 53 µM (inactive); GI50 [42]: 72.1 µM (inactive); GI50 [43]: > 100 µM (inactive); GI50 [44]: 52.4 µM (inactive); GI50 [45]: > 100 µM (inactive); GI50 [46]: > 100 µM (inactive); GI50 [47]: 52.4 µM; GI50 [48]: > 100 µM (inactive); GI50 [49]: > 100 µM (inactive); GI50 [50]: > 100 µM (inactive); GI50 [51]: 44.6 µM (inactive); GI50 [52]: 61.4 µM (inactive); GI50 [53]: > 100 µM (inactive); GI50 [35]: > 100 µM (inactive); GI50 [37]: 62.7 µM (inactive); GI50 [38]: > 100 µM (inactive); GI50 [54]: 76.4 µM (inactive) |
